The source made the active and inactive calls.
Experiments:
SUMO-activating enzyme [1] = molecular target: T1, SUMO-activating enzyme (Homo sapiens, UniProt Q9UBT2); experiment: inhibitors of in vitro SUMOylation cascade, primary screen, biochemical, HTRF, uHTS (AID 2006); type: protein-complex assay
[2] = molecular target: T2, Alkaline phosphatase, tissue-nonspecific isozyme (Homo sapiens, UniProt P05186); experiment: TNAP enzyme activators, dose response, selectivity assay for mouse IAP activator project, biochemical, TNAP isozyme, mouse IAP uHTS hits (AID 488880); type: functional
T2 sequence (P05186 whole entry): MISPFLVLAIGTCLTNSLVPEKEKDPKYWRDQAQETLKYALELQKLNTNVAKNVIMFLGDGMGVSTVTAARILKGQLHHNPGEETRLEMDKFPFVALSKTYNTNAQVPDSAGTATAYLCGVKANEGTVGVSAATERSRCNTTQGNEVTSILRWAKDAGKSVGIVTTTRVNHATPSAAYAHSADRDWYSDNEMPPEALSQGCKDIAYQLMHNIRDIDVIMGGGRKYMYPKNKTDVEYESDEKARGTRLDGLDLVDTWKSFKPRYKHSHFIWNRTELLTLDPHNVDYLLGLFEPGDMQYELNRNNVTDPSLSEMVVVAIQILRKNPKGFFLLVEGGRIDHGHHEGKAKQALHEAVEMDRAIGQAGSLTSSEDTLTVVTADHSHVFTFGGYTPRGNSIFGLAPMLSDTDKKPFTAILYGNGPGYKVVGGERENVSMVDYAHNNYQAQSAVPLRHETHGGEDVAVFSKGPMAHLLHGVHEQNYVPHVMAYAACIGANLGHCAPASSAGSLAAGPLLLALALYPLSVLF

[3] = molecular target: T3, Trace amine-associated receptor 1 (Homo sapiens, UniProt Q96RJ0); experiment: Counterscreen for agonists of the human trace amine associated receptor 1 (hTAAR1): Fluorescence-based cell-based high throughput dose response assay to identify hTAAR1 agonist that also desensitize TAAR1 receptor response.; type: functional
T3 sequence (Q96RJ0 whole entry): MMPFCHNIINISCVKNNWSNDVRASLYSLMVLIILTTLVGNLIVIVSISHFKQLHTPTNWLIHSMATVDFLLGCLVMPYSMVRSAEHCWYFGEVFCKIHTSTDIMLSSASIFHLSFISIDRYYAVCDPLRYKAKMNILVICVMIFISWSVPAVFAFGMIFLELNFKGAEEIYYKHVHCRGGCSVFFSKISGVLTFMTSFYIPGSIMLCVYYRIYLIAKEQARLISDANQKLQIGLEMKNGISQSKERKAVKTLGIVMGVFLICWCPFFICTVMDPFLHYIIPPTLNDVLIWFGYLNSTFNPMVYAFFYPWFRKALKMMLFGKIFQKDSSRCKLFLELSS

cells [4] = type: functional, cell-based
[5] = molecular target: Dual specificity tyrosine-phosphorylation-regulated kinase 1A (Rattus norvegicus, UniProt Q63470); type: biochemical, Homo sapiens
Aspartyl aminopeptidase = Aspartyl aminopeptidase (Plasmodium falciparum 3D7, UniProt Q8I2J3)
[6] = molecular target: T4, Zinc finger protein mex-5 (Caenorhabditis elegans, UniProt Q9XUB2); experiment: MEX-5/TCR-2 RNA interaction inhibitors, dose response, biochemical, C. elegans, fluorescence polarization (AID 1960)
T4 sequence (Q9XUB2 whole entry): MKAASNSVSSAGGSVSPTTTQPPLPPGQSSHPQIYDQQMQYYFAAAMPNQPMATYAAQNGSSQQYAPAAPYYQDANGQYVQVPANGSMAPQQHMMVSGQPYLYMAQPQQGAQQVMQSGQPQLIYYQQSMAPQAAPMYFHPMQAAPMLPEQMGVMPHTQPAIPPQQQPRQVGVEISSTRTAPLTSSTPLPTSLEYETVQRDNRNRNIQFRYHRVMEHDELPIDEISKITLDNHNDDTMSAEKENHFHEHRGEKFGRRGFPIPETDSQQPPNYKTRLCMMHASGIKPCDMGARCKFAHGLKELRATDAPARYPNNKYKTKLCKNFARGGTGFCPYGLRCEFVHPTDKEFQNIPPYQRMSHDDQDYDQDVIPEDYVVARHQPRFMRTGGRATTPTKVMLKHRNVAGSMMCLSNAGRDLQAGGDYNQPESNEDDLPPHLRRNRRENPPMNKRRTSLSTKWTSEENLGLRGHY

SUMO-activating enzyme [7] = molecular target: T1, SUMO-activating enzyme; experiment: SUMOylation inhibitor hit validation, confirmation, SUMOylation inhibitor project, biochemical, AlphaScreen (AID 2018); type: functional
cells [8] = type: functional, cell-based; remark: listed apart in the source
[9] = molecular target: Intestinal-type alkaline phosphatase (Homo sapiens, UniProt P09923); experiment: activation of human intestinal alkaline phosphatase – biochemical, dose response (AID 488873); type: functional
[10] = molecular target: T3, Trace amine-associated receptor 1; experiment: Fluorescence-based cell-based high throughput dose response assay to identify agonists of the human trace amine associated receptor 1 (TAAR1).; type: functional
[11] = molecular target: Intestinal-type alkaline phosphatase (Mus musculus, UniProt P24822); experiment: mouse intestinal alkaline phosphatase activators, dose response, biochemical, luminescence, uHTS hits (AID 488783); type: functional
Large T antigen = Large T antigen (Simian virus 40, UniProt P03070); type: functional, Betapolyomavirus macacae;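 also: Confirmatory-stage PubChem screen for compounds that inhibit SV40 T antigen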
Procathepsin L = Procathepsin L (Homo sapiens, UniProt P07711)
Albumin = Albumin (Bos taurus, UniProt P02769); experiment: Counterscreen for inhibitors of T-cell receptor (TCR)-CD3 interaction: Fluorescence-based biochemical high throughput dose response assay to identify inhibitors of T-cell receptor (TCR)-CD3 interaction using a TAMRA-labeled BSA probe.; type: functional
[12] = molecular target: T5, RNA-binding protein pos-1 (Caenorhabditis elegans, UniProt G5EF15); experiment: inhibitors of POS-1/mex-3 RNA binding, dose response, biochemical, fluorescence polarization (AID 1964);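 also: purified POS-1 fused to maltose binding protein made in E. coli; potency of compounds blocking POS-1 binding to fluorescent RNA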
T5 sequence (G5EF15 whole entry): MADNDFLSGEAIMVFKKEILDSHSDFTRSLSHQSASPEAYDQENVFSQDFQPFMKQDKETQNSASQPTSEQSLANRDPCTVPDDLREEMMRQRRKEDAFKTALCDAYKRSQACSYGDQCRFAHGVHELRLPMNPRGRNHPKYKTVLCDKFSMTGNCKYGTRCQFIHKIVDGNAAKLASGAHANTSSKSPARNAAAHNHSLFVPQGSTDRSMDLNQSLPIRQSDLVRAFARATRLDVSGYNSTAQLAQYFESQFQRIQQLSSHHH

[13] = molecular target: Peroxisome proliferator-activated receptor gamma/Nuclear receptor coactivator 3 (Homo sapiens, UniProt P37231); experiment: TR-FRET dose response biochemical High Throughput Screening assay for agonists of the steroid receptor coactivator 3 (SRC-3) recruitment by the peroxisome proliferator-activated receptor gamma (PPAR gamma): non-selective agonists. [Related pubchem assays: 1301 (Confirmation screen.), 1048 (Primary screen.)]; type: functional
[14] = molecular target: Peroxisome proliferator-activated receptor gamma/Nuclear receptor coactivator 2 (Homo sapiens, UniProt P37231); experiment: TR-FRET dose response biochemical High Throughput Screening assay for agonists of the steroid receptor coactivator 2 (SRC-2) recruitment by the peroxisome proliferator-activated receptor gamma (PPAR gamma): non-selective agonists. [Related pubchem assays: 1297, 1032 ]; type: functional
Chain of Peroxisome proliferator-activated receptor gamma/Nuclear receptor coactivator 2 (P37231 whole entry): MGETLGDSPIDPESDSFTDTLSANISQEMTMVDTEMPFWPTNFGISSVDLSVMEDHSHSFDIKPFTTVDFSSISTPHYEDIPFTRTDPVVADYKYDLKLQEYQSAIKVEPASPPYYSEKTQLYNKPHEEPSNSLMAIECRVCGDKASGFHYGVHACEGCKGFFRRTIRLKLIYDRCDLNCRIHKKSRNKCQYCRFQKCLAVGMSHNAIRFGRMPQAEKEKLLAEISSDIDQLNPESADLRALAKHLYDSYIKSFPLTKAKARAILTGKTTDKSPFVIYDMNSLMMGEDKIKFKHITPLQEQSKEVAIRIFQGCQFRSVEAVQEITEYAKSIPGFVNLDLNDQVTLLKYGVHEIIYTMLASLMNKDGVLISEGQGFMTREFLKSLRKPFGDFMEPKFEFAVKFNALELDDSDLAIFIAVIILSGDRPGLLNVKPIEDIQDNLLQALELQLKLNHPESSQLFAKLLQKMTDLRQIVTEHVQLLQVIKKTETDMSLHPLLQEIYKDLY
Chain of Peroxisome proliferator-activated receptor gamma/Nuclear receptor coactivator 2 (Q15596 whole entry, further chain): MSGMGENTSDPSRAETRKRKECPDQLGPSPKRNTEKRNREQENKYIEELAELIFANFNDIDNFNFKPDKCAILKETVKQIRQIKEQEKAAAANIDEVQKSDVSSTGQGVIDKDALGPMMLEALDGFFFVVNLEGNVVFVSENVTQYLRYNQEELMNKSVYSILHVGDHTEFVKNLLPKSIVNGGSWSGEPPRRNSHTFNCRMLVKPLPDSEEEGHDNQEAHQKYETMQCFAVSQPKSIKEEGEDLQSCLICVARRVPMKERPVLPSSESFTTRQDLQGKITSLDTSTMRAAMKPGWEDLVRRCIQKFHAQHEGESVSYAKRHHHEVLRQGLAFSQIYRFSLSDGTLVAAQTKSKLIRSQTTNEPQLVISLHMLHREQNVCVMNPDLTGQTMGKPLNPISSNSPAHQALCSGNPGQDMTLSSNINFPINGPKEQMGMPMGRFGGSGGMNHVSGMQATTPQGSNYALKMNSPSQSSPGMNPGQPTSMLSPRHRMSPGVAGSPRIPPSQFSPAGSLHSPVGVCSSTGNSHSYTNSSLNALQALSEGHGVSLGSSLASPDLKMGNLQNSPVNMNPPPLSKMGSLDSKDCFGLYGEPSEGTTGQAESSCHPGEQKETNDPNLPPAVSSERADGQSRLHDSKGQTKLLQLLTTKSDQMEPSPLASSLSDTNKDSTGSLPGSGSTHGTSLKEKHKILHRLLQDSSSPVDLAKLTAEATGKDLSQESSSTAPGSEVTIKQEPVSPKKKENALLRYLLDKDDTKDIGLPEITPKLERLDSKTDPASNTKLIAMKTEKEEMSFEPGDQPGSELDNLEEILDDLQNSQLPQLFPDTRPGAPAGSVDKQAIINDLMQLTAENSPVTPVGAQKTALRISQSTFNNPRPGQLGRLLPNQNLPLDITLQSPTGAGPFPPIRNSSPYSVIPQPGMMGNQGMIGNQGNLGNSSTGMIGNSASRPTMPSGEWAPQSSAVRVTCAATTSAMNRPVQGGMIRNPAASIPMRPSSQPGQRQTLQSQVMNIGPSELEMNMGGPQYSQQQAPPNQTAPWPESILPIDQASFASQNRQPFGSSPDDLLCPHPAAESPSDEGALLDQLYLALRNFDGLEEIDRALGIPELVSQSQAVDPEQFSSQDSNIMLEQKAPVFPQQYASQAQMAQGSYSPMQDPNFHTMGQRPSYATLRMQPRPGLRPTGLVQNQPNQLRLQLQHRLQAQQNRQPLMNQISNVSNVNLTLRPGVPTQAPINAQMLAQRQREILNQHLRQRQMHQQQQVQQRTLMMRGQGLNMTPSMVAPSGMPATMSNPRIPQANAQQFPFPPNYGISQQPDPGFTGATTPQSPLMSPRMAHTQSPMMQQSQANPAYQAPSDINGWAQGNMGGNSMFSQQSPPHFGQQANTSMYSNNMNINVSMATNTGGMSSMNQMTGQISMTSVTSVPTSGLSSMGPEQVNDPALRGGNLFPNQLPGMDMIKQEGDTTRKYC

[15] = molecular target: Peroxisome proliferator-activated receptor gamma/Nuclear receptor coactivator 1 (Homo sapiens, UniProt P37231); experiment: TR-FRET dose response biochemical High Throughput Screening assay for agonists of the steroid receptor coactivator 1 (SRC-1) recruitment by the peroxisome proliferator-activated receptor gamma (PPAR gamma): non-selective agonists. [Related pubchem assays (depositor defined):AID1300, AID1808, AID504735, AID631]; type: protein assay
Chain of Peroxisome proliferator-activated receptor gamma/Nuclear receptor coactivator 1 (P37231 whole entry): as the sequence (P37231 whole entry) above
Chain of Peroxisome proliferator-activated receptor gamma/Nuclear receptor coactivator 1 (Q15788 whole entry, further chain): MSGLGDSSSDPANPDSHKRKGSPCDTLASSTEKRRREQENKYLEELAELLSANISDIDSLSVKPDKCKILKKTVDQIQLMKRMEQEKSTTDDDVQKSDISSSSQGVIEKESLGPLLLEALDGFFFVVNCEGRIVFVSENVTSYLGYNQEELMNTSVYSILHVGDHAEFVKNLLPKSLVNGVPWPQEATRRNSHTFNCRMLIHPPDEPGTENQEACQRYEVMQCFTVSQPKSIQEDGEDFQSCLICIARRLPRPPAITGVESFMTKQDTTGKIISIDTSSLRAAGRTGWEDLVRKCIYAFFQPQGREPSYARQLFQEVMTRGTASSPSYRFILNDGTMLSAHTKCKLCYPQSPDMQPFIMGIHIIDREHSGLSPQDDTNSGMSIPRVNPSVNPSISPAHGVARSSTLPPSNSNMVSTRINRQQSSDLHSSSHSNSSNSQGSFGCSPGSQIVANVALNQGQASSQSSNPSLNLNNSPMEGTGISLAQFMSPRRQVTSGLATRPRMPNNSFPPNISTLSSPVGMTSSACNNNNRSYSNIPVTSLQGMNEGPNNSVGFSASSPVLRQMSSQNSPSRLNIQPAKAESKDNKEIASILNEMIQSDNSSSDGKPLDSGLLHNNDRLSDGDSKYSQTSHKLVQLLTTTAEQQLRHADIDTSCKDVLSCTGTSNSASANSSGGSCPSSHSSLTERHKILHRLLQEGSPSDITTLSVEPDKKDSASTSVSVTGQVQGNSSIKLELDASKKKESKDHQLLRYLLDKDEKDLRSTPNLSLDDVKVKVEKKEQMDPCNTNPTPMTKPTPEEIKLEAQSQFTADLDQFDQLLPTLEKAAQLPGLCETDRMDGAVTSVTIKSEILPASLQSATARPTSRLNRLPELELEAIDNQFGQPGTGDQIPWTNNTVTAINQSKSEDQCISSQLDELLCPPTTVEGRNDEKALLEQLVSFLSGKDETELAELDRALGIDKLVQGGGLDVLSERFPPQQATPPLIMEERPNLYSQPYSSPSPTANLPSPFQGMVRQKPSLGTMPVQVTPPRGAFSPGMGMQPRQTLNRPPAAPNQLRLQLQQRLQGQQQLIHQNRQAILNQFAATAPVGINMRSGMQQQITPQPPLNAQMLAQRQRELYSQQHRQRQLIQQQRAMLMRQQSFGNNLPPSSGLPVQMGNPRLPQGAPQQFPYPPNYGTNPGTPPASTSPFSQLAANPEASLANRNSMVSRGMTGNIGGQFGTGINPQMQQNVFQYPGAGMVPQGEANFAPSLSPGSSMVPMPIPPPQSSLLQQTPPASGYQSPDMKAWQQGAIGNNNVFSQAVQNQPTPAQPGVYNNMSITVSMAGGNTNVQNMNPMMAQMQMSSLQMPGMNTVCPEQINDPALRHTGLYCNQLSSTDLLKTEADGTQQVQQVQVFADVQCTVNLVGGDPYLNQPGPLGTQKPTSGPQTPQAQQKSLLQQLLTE

[16] = molecular target: DNA dC->dU-editing enzyme APOBEC-3G (Homo sapiens, UniProt Q9HC16); experiment: Dose Response confirmation of small molecule APOBEC3G DNA Deaminase Inhibitors via a fluorescence-based single-stranded DNA deaminase assay. [Related pubchem assays (depositor defined):AID493012, AID493028]; type: functional
[17] = molecular target: Luciferin 4-monooxygenase (Photinus pyralis, UniProt P08659); experiment: firefly luciferase enzyme inhibitors, dose response, biochemical, luminescence (AID 1891)
Hexokinase-1 = molecular target: T6, Hexokinase-1 (Homo sapiens, UniProt P19367); experiment: hexokinase 1 activators, dose response, selectivity assay for HKDC1 activator project, biochemical (AID 504762); type: functional
T6 sequence (P19367 whole entry): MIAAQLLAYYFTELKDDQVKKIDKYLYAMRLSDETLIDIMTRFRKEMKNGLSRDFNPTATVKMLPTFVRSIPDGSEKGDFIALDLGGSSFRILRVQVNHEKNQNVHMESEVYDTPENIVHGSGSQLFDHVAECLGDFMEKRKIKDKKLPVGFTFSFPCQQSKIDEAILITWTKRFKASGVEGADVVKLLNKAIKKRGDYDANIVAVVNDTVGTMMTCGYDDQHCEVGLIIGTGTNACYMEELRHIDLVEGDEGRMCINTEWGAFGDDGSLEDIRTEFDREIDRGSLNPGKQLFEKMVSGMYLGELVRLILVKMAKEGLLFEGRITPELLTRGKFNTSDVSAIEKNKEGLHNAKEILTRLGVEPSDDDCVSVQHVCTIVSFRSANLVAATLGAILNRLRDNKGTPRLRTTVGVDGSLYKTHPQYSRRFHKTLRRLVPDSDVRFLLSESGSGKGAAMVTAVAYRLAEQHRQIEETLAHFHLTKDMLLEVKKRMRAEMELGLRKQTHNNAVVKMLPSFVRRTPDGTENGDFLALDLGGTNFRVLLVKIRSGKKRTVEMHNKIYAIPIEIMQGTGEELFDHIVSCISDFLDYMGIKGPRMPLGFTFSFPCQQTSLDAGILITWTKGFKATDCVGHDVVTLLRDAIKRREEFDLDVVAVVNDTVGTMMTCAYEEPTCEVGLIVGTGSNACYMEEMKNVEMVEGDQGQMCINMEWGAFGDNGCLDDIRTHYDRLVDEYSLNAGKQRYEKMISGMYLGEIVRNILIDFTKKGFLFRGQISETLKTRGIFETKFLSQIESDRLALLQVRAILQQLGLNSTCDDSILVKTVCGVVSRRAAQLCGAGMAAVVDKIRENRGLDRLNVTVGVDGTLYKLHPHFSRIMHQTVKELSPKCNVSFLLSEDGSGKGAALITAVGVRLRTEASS

[18] = Luminescence Cell-Based Dose Retest to Confirm Inhibitors of Cancer Stem Cells. [Related pubchem assays (depositor defined):AID2717, AID2721]; type: functional, Homo sapiens; settings: Homo sapiens
INS1 = experiment: beta cell apoptosis inhibitors, cytokine rescue, dose response, luminescence, retest (AID 449756); type: functional, cell-based; settings: Rattus norvegicus;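 also: cell death triggered by IL-1 beta plus TNF-alpha plus IFN-gamma mixture; protective hits raise ATP signal compared with cytokine alone wells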
Hexokinase HKDC1 = molecular target: T7, Hexokinase HKDC1 (Homo sapiens, UniProt Q2TB90); experiment: HKDC1 hexokinase activators, dose response, biochemical, W721R variant (AID 504730); type: functional
T7 sequence (Q2TB90 whole entry): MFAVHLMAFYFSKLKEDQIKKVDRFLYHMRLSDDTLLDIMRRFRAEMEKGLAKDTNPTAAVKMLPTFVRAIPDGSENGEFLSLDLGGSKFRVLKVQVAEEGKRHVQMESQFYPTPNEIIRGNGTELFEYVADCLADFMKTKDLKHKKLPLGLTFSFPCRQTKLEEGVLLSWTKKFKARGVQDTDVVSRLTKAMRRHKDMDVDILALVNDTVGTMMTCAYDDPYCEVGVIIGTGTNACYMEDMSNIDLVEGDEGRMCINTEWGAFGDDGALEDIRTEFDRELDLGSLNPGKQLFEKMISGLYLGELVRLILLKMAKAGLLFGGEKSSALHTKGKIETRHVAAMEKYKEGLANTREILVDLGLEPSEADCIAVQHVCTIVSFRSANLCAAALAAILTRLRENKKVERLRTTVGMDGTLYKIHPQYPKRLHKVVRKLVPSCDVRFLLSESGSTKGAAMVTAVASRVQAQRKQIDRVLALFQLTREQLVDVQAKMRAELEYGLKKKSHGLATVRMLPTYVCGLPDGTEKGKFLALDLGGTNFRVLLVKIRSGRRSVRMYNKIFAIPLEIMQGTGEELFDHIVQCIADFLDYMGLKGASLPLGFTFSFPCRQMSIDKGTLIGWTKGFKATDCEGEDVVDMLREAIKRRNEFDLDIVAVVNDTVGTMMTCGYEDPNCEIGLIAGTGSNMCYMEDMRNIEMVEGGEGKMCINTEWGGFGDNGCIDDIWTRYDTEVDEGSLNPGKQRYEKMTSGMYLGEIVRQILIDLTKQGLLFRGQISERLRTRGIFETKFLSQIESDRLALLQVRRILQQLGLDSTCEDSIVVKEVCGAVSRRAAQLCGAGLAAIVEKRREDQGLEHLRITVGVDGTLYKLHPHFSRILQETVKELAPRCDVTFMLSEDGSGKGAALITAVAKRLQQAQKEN

T1 sequence (Q9UBE0 whole entry): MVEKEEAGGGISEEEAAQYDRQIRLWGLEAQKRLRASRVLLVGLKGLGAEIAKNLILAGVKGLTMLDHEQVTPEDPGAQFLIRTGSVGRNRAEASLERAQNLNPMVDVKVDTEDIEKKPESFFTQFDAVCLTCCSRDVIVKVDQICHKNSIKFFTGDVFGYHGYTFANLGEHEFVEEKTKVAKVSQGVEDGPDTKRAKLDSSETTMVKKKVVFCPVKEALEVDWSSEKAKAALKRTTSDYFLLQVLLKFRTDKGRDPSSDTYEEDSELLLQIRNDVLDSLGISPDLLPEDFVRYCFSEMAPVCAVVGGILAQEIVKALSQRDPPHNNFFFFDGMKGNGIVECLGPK
T1 sequence (Q9UBT2 whole entry): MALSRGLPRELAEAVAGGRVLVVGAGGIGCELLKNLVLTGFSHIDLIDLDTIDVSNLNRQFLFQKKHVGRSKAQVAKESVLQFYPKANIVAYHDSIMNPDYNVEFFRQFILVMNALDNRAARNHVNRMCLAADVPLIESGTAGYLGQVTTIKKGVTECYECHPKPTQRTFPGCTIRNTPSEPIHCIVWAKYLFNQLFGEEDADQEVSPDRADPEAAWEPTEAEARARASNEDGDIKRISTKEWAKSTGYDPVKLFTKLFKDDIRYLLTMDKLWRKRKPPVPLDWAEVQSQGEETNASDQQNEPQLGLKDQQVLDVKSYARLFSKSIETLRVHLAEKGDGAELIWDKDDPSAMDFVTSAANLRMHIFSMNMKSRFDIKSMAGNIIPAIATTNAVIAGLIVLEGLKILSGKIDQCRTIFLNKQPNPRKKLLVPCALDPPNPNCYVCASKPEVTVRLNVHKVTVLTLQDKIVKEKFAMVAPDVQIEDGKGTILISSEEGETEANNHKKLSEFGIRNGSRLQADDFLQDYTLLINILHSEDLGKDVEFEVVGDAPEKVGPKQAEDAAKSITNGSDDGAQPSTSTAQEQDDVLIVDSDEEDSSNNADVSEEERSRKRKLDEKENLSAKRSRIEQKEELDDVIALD

SMILES: O=C(N/N=C/c1ccc(O)c(O)c1)N/N=C/c1ccc(O)c(O)c1
- IC50 (SUMO-activating enzyme [1]): 2.11 µM (active)
- EC50 [2]: 79.4 µM (active)
- IC50 [3]: > 9.97 µM (active)
- EC50 (cells [4]): > 29.9 µM (inactive)
- AC50 [5]: 1.63 µM (active)
- IC50 (Aspartyl aminopeptidase): 2.79 µM (active)
- EC50 [6]: 4.86 µM (inconclusive)
- IC50 (SUMO-activating enzyme [7]): 0.69 µM (active)
- IC50 (cells [8]): > 29.9 µM (inactive)
- EC50 [9]: 66.2 µM (active)
- EC50 [10]: 0.647 µM (active)
- EC50 [11]: 4.96 µM (active)
- IC50 (Large T antigen): 0.73 µM (active)
- IC50 (Procathepsin L): > 59.6 µM (not active)
- IC50 (Albumin): > 94.1 µM (inactive)
- EC50 [12]: 16.2 µM (active)

SMILES: CCN1CCCC1CNC(=O)CSc1cc(=O)n(CC)c2ccccc12 (stereo not drawn)
- EC50 [13]: > 79.4 µM (not active)
- EC50 [14]: > 79.4 µM (not active)
- EC50 [15]: > 79.4 µM (inactive)

SMILES: C=CCn1c(-c2cc(Cl)ccc2OC)n[nH]c1=S
- EC50 [13]: > 79.4 µM (not active)
- EC50 [14]: 28.9 µM (not active)
- EC50 [15]: 21.4 µM (inactive)
- IC50 [16]: 8.82 µM (active)
- EC50 [17]: > 112 µM (not active)

SMILES: Cc1nc2c3cc(F)ccc3n(Cc3ccccc3)c2s1
- EC50 (Hexokinase-1): 57.5 µM (inactive)
- AC50 [18]: 83.6 µM (active)
- AC50 (INS1): > 260 µM (inactive)
- EC50 (Hexokinase HKDC1): 39.2 µM (inactive)

Reference: ChEMBL document CHEMBL1201862, “PubChem BioAssay data set” (2004)
